# Assay results taken from patent publication US20080194590A1, “4-Piperazinylthieno [2,3-D] Pyrimidine Compounds as Platelet Aggregation Inhibitors” (Pfizer Inc, priority 2005, published 2008).
# Several values for one entry are separate records, joined by “and”; a condition that tells them apart may be missing. Equal entries are not always repeated.
# Assays:
# P2Y12 receptor [1] = biological target: T1, P2Y12 receptor (Homo sapiens, UniProt Q9H244); experiment: Human P2Y12 recombinant cell membrane binding assay with 33P 2MeS-ADP (Assay 3); design: expressed in transfected cells; host or cells: HEK cells; settings: for IC50 / Ki: HEK cell membranes expressing P2Y12, multiple lines = multiple runs; for [33P]-2MeS-ADP Binding to Recombinant Human P2Y12 Membranes (Assay 3) % Inhibition / inhibition at 10 µM: highest concentration tested 10 μM; for inhibition at 10 µM: read-out: [33P]-2MeS-ADP Binding to Recombinant Human P2Y12 Membranes (Assay 3) % Inhibition
# T1 sequence (Q9H244 whole entry): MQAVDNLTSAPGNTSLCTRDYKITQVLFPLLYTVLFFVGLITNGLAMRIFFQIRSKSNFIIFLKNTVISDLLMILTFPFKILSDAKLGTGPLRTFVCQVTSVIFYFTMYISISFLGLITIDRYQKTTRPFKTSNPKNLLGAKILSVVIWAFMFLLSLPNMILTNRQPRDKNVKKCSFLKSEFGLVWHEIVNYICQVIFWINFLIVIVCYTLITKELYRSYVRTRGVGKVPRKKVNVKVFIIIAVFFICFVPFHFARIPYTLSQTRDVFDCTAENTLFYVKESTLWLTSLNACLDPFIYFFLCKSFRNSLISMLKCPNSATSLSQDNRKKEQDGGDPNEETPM
# Description: 3. Human P2Y12 Recombinant Cell Membrane Binding Assay with ^33P 2MeS-ADP.
# The ability of a test compound to bind to the P2Y12 receptor was evaluated in a recombinant cell membrane binding assay. In this competitive binding assay, the test compound competed against a radiolabelled agonist for binding to the P2Y12 receptor, expressed on the cell membrane. Inhibition of binding of the labeled material was measured and correlated to the amount and potency of the test compound. Data from this assay are presented in Table F. This binding assay is a modification of the procedure in Takasaki, J. et. al, Mol. Pharmacol., 2001, Vol. 60, pg. 432.
# HEK cells were transfected with the pDONR201P2Y12 vector and cultured in MEM with GlutaMAX I, Earle's salts, 25 mM HEPES (Gibco # 42360-032) containing 10% dialyzed FBS (Gibco # 26400-044), 100 μM nonessential amino acids (Gibco # 11140-050), 1 mM sodium pyruvate (Gibco # 11360-070), 0.05% geneticin (Gibco #10131-027), 3 μg/mL blasticidin (Fluka brand from Sigma # 15205), and 0.5 μg/mL puromycin (Sigma # P-8833).
# Confluent cells were washed once with cold DPBS (Gibco # 14190-136). Fresh DPBS was added and the cells were scraped and centrifuged at 500×g for 5 minutes at 4° C. The cell pellets were resuspended in TEE buffer (25 mM Tris, 5 mM EDTA, 5 mM EGTA) containing 1 protease inhibitor cocktail tablet (Roche # 1 873 580) per 50 mL (called TEE+Complete) and can be flash frozen at this point.
# In one embodiment, frozen cell pellets were used to prepare the membranes. In that embodiment, the frozen cell pellets were thawed on ice. In another embodiment, cell pellets may be used without flash freezing before moving on to the next step.
# Cell pellets were resuspended in TEE buffer+Complete and homogenized in a glass dounce for 12 strokes. The cell suspension was centrifuged at 500×g for 5 minutes at 4° C. The supernatant was saved and centrifuged at 20,000×g for 20 minutes at 4° C. This supernatant was discarded and the cell pellet resuspended in TEE buffer+Complete and homogenized in a glass dounce for 12 strokes. This suspension was centrifuged at 20,000×g for 20 minutes at 4° C. and the supernatant discarded. The pellet was resuspended in assay buffer (50 mM Tris, 100 mM NaCl, 1 mM EDTA) containing one protease inhibitor cocktail tablet per 50 mL, and can be flash frozen as 1 mL aliquots at this point.
# Dry compounds were diluted as 10 mM DMSO stocks and tested in a seven-point, three-fold dilution series run in triplicate beginning at 10 μM, final concentration. A 1 mM DMSO intermediate stock was made in a dilution plate and from this the seven dilutions were made to 5× the final concentration in assay buffer containing 0.02% BSA.
# To a polypropylene assay plate (Costar # 3365) the following were added: a) 30 μL of assay buffer containing one protease inhibitor cocktail tablet per 50 mL; b) 30 μL of 1 nM ^33P 2MeS-ADP made in assay buffer containing 0.02% BSA and 12.5 mg/mL ascorbic acid; 30 μL of cold 1.5 μM 2MeS-ADP for the positive control wells, or assay buffer containing 0.02% BSA and 12.5 mg/mL ascorbic acid for the negative control wells, or 5× drug dilution; and 60 μL of 1 ug/well membranes.
# The plates were incubated at room temperature for 1 hour. The reaction was stopped using a cell harvester to transfer the reaction mixture onto GF/B UniFilter plates (Perkin Elmer # 6005177), and washed three times with wash buffer (50 mM Tris), filtering between each wash. The filter plates were dried for approximately 20 minutes in an oven at 50° C. Back seals were adhered to the filter plates and 25 uL of Microscint 20 scintillation fluid (Perkin Elmer # 6013621) were added. The filter plates were sealed, shaken for 30 minutes, and counted on a Top Count. Data were analyzed using a four-parameter curve fit with a fixed minimum and maximum experimentally defined as the average positive and negative controls on each plate, and with a hill slope equal to one.
# P2Y12 receptor [2] = biological target: T1, P2Y12 receptor; experiment: as above; design: expressed in transfected cells; host or cells: HEK cells; settings: highest concentration tested 1 μM; read-out: [33P]-2MeS-ADP Binding to Recombinant Human P2Y12 Membranes (Assay 3) % Inhibition
Compound,IC50 (P2Y12 receptor [1]),Ki (P2Y12 receptor [1]),[33P]-2MeS-ADP Binding to Recombinant Human P2Y12 Membranes (Assay 3) % Inhibition (P2Y12 receptor [1]),inhibition at 10 µM (P2Y12 receptor [1]),inhibition at 1 µM (P2Y12 receptor [2])
"CCc1cc2c(N3CCN(C(=O)Cc4ccccc4)CC3)nc(NCCO)nc2s1 [Example 11, 2-({6-Ethyl-4-[4-(phenylacetyl)piperazin-1-yl]thieno[2,3-d]pyrimidin-2-yl}amino)ethanol]",1.13 µM and 1.19 µM and 0.905 µM,0.65 µM and 0.687 µM and 0.905 µM,82.93%,76.7%,51%
"CCc1cc2c(N3CCN(C(=O)c4ccc(-c5ccccc5)cc4)CC3)nc(NC[C@H](O)CO)nc2s1 [Example 26, (2S)-3-({4-[4-(1,1′-biphenyl-4-ylcarbonyl)piperazin-1-yl]-6-ethylthieno[2,3-]pyrimidin-2-yl}amino)propane-1,2-diol]",0.02 µM and 0.061 µM and 0.047 µM,0.01 µM and 0.035 µM and 0.027 µM,94.85%,98.6%,90%
"CCc1cc2c(N3CCN(C(=O)c4ccc(-c5ccccc5)cc4)CC3)nc(NC[C@@H](O)CO)nc2s1 [Example 27, (2R)-3-({4-[4-(1,1′-biphenyl-4-ylcarbonyl)piperazin-1-yl]-6-ethylthieno[2,3-d]pyrimidin-2-yl}amino)propane-1,2-diol]",0.01 µM and 0.048 µM and 0.043 µM,0.01 µM and 0.028 µM and 0.025 µM,93.86%,100%,92%
"CCc1cc2c(N3CCN(C(=O)c4cccc(-c5ccccc5)c4)CC3)nc(NC[C@H](O)CO)nc2s1 [Example 29, (2S)-3-({4-[4-(1,1′-biphenyl-3-ylcarbonyl)piperazin-1-yl]-6-ethylthieno[2,3-d]pyrimidin-2-yl}amino)propane-1,2-diol]",0.068 µM and 0.05 µM and 0.132 µM,0.036 µM and 0.03 µM and 0.076 µM,93.19%,97.3%,89%
"CCc1cc2c(N3CCN(C(=O)c4cccc(-c5ccccc5)c4)CC3)nc(NC[C@@H](O)CO)nc2s1 [Example 30, (2R)-3-({4-[4-(1,1′-biphenyl-3-ylcarbonyl)piperazin-1-yl]-6-ethylthieno[2,3-d]pyrimidin-2-yl}amino)propane-1,2-diol]",0.063 µM and 0.08 µM and 0.105 µM,0.033 µM and 0.05 µM and 0.061 µM,96.44%,97.7%,88%
"CCc1cc2c(N3CCN(C(=O)c4ccc(-c5ccccc5)cc4)CC3)nc(NC(CO)CO)nc2s1 [Example 31, 2-({4-[4-(1,1′-biphenyl-4-ylcarbonyl)piperazin-1-yl]-6-ethylthieno[2,3-d]pyrimidin-2-yl}amino)propane-1,3-diol]",0.021 µM,0.012 µM,,,93%
